# In patent publication US20220202811A1, “TREATMENT FOR RETINOIC ACID RECEPTOR-RELATED ORPHAN RECEPTOR Ɣ (RORƔ)-DEPENDENT CANCERS” (The Regents of the University of California, priority 2019, published 2022):
# Entries after “also recorded” stand apart in the source; their conditions may differ.
# Key:
# [1] = system: primary patient-derived PDX202 pancreatic cancer cells; assay: PDX202 organoid assay; format: cell-based, human; conditions: 3 μM JTE-151 alone
# Experimental: Moreover, the anti-cancer effect of JTE-151 was determined in an organoid assay using pancreatic cancer cells derived from mice bearing primary patient-derived xenografts.
# [2] = system: tumor-bearing KP^f/fC mice; assay: tumor-bearing KP^f/fC mice in vivo (AZD-0284, JTE-151); set-up: species or system mouse
# Experimental: Next, the impact of JTE-151 was tested on tumor-bearing KP^f/fC mice in vivo. FIG. 51 is a schematic of the experimental design. KP^f/fC mice were allowed to develop tumors, then the tumor-bearing mice received vehicle or JTE-151, followed by analysis of the tumors at the end of the experiments. Different doses of JTE-151, i.e., at 30 mg/kg, 90 mg/kg, and 120 mg/kg body weight, were tested.
# FIGS. 53-56 show examples of individual experiments where tumor-bearing KP^f/fC mice was treated with either vehicle or 90 mg/kg JTE-151 for 3 weeks in regimens as specified in the figures. For example, in FIGS. 53 and 55, the mice received 90 mg/kg JTE-151 once daily for 3 weeks. In FIG. 54, the mice received 90 mg/kg JTE-151 once daily for 1 week, followed by twice daily for another 2 weeks. At the end of each experiment, tumors were analyzed for different parameters including tumor mass, cell number, EpCAM positivity, CD133 positivity, EpCAM/CD133 positivity, cellularity, and IL-17 level. […] It was not clear whether the initial tumor size of the non-responder mouse was unusually large due to variances between different mice.
# Similarly, the anti-cancer effect of JTE-151 was tested on tumor-bearing KP^f/fC mice in vivo at a higher dose of 120 mg/kg (FIGS. 59-61 showing three individual experiments). For each experiment, one mouse was given vehicle treatment, and another mouse was given the JTE-151 regimen as specified in the figures. For example, in FIG. 59, the JTE-151 mouse received 120 mg/kg body weight of JTE-151 for 2 weeks and then 90 mg/kg JTE-151 for 1 week. In the first 1.5 weeks, JTE-151 was given once daily, and in the second 1.5 weeks, JTE-151 was given twice daily. As previously, at the end of each experiment, tumors were analyzed for different parameters including cell number, EpCAM positivity, EpCAM/CD133 positivity, and IL-17 level. In each of FIGS. 59-61, the horizontal axis of each graph represents the target (vehicle vs. JTE-151 mouse), and the vertical axis represents the specified measurement.
# [3] = system: human pancreatic cancer Fast Growing (FG) cells; assay: FG organoid assay; format: cell-based
# Experimental: Similarly, the effects of JTE-151 at different doses were examined on human pancreatic cancer Fast Growing (FG) cells using the organoid assay (FIG. 69). Three doses of JTE-151 were tested: 0.3 μM, 1 μM, and 3 μM.
# [4] = system: PDX1356 xenografts; assay: PDX1356 xenografts in mice; format: in vivo, human
# Source text: Finally, the impact of JTE-151 was examined in vivo on mice bearing primary patient-derived pancreatic cancer xenografts (FIGS. 70-78). […] FIGS. 70-72 show 3 rounds of treatment in an experiment using mice bearing PDX1356 xenographs. The horizontal axis of the first panel in each of FIGS. 70-72 represents days of treatment, and the vertical axis represents tumor volume. The horizontal axis of each of the remaining panels represents the target (vehicle vs. JTE-151 mouse), and the vertical axis represents the specified measurement. JTE-151 was given at the regimen as specified in the figures. For example, in the first round (FIG. 70), JTE-151 was given at 90 mg/kg body weight once per day for the first 25 days, then twice per day from day 26 though day 40.
# [5] = system: non-germline KRAS/p53 organoids; assay: non-germline KRAS/p53 organoid assay; format: cell-based, mouse; conditions: 3 μM, 6 μM, 9 μM JTE-151; 4 days
# Experimental: First, pharmacologic blockade of RORγ using JTE-151 was tested on pancreatic cell organoids as described above. Pancreatic cancer cells derived from two genetically engineered mouse models (GEMMS) were used for the organoid studies (FIGS. 47, 48). […] Then, electroporation was used to promote incorporation of the DNA into the pancreatic cells.
# About 4,000 organoids from each of the non-germline and germline mouse models were plated as single cells in multi-well plates, as described above, and treated with JTE-151 for 4 days (FIG. 48). Organoid number and size were analyzed after treatment. […] In the quantification, different doses of JTE-151 were plotted along the horizontal axis, and the volume of organoids was expressed as relative to control along the vertical axis. […] Organoid volume was then analyzed. Different doses of JTE-151 were plotted along the horizontal axis, and the vertical axis represents relative organoid volume to control.
# [6] = system: primary murine PanIN derived organoids; assay: PanIN derived organoids; format: cell-based
# Experimental: Moreover, RORγ inhibitor SR2211 can block the growth of benign pancreatic intraepithelial neoplasia (PanIN) lesions. The effect of SR2211 was tested on dissociated primary murine PanIN derived organoids.
# [7] = system: pancreatic cancer cell; assay: in vivo tumor growth, antagonists of Table 2; set-up: species or system mouse; conditions: extent of growth suppression relative to control
# [8] = system: autochthonous tumor-bearing KP^f/fC mice; assay: autochthonous KP^f/fC survival study
# [9] = 90 mg/kg JTE-151, 3 weeks, compilation (FIG. 57)
# [10] = 120 mg/kg JTE-151 regimen, mice that responded
# [11] = first round: JTE-151 90 mg/kg once per day for 25 days, then twice per day to day 40
# [12] = third round: JTE-151 90 mg/kg once per day
smiles,measurement,setting,value
"Cc1ccc(NC(=O)C[C@H](CCC(=O)O)c2noc([C@H]3C[C@@H](CC(C)(C)C)C3)c2C2CC2)c(Cl)c1 [JTE-151, (4S)-6-[(2-chloro-4-methylphenyl)amino]-4-{4-cyclopropyl-5-[cis-3-(2,2-dimethylpropyl)cyclobutyl]isoxazol-3-yl}-6-oxohexanoic acid]",organoid growth,[1],inhibited
same,EpCam+/CD133+ tumor stem cells,[2]; 30 mg/kg JTE-151 once daily for about 3 weeks (FIG. 52),loss
same,mice that did not show a response,[2]; 90 mg/kg JTE-151 (FIG. 56),1 out of 5
same,EpCam+/CD133+ tumor stem cells,[2]; [9],loss
same,tumor mass,[2]; [9],reduced
same,tumor mass,"[2]; 90 mg/kg JTE-151, 3 weeks, individual experiments (FIGS. 53-55)",reduced
same,mice that responded to the drug,[2]; 120 mg/kg JTE-151 regimen (FIGS. 59-61),At least two of the three mice
same,EpCam+ tumor epithelial cells,[2]; [10],loss
same,EpCam+/CD133+ tumor stem cells,[2]; [10],loss
same,EpCam+/CD133+ tumor stem cells,"[2]; JTE-151 at either 30 mg/kg or 90 mg/kg, 3 weeks (FIG. 58)",loss
same,FG organoid growth,"[3]; JTE-151 (0.3 μM, 1 μM, 3 μM) in combination with 0.05 nM gemcitabine",significant inhibition
same,FG organoid growth,"[3]; JTE-151 alone at 0.3 μM, 1 μM, and 3 μM",significant inhibition
same,tumor growth rate,"[4]; 3 experiments, slope compared to control (FIG. 73)",generally slower
same,EpCam+ tumor epithelial cells,[4]; [11],lower
same,EpCam+/CD133+ tumor stem cells,[4]; [11],lower
same,cell count,[4]; [11],decreased
same,tumor growth,[4]; [11],reduced
same,EpCam+ tumor epithelial cells,[4]; [12],reduced
same,EpCam+/CD133+ tumor stem cells,[4]; [12],reduced
same,organoid growth,[5],visibly and significantly impaired; also recorded: inhibited
OC(c1ccc(-c2ccc(CN3CCN(Cc4ccncc4)CC3)cc2)c(F)c1)(C(F)(F)F)C(F)(F)F [SR2211],organoid number,[6],reduced
same,organoid volume,[6],reduced
same,in vivo tumor growth,[7],✓✓ (dose response observed; growth suppressed by less than 4-fold relative to control)
same,mice alive,[8]; 25 days after the initiation of treatment,75%
same,mice alive,[8]; 45 days after treatment initiation,50%
same,Hazard ratio,[8]; SR2211 vs vehicle,0.16
same,median survival,[8]; treated daily from 8 weeks of age until moribund,38.5 days
same,decreased risk of death,[8]; vs vehicle,6 fold
